# Reference: patent US20220249441A1, “Homodimeric Tobramycin Adjuvant Repurposes Novobiocin as an Effective Antibacterial Agent Against Gram-Negative Bacteria” (priority 2019, published 2022)
# How the values were obtained:
# [1] = tested on: P. aeruginosa PAO1 and efflux deficient mutants, MDR/XDR isolates; experiment: microbe, parasite or virus in culture; assay type: cell-based, Pseudomonas aeruginosa
# Method: Antimicrobial Susceptibility Assay. The in vitro antimicrobial activity of all compounds/antibiotics against a panel of bacteria was evaluated by microbroth dilution method in accordance with the Clinical and Laboratory Standards Institute (CLSI) guidelines (using ATCC strains as quality control strains) (54). […] The broth with or without bacterial cells was used as positive or negative control, respectively.
# P. aeruginosa PAO1 [2] = experiment: Outer membrane permeabilization assay (NPN uptake); assay type: cell-based, Pseudomonas aeruginosa
# Method: Outer Membrane Permeabilization Assay. […] Briefly, an overnight grown P. aeruginosa PAO1 culture was subcultured (1 in 100) in fresh LB broth and grown to a mid-logarithmic phase (approximately 2 h, OD600=0.5-0.6). The cells were harvested by centrifuging for 10 min at 1000 g and room temperature, washed twice in PBS, and resuspended in half volume of PBS. This suspension was used in standard microtiter plate assay. […] PMBN, a known outer membrane permeabilizer, served as a positive control while cells +NPN (without test compounds) served as a negative control. Four independent replicates were conducted, and the data were corrected for any background fluorescence.
# [3] = tested on: A. baumannii ATCC 17978 and resistant mutants; experiment: microbe, parasite or virus in culture; assay type: cell-based, Acinetobacter baumannii; settings: Acinetobacter baumannii
# P. aeruginosa PAO1 [4] = experiment: Time-kill assay; assay type: cell-based, Pseudomonas aeruginosa; settings: LB media, novobiocin 32 μg/ml, compound 1 7.1 μM, 24 h
# Method: (§1) Time-kill Assay. […] At specific time intervals (0, 1, 3, 6, 9, and 24 h), 100 μl was taken from each sample, serially diluted in sterile PBS, plated on LB agar plates, and incubated at 37° C. in a humid 5% CO2-enriched atmosphere. Bacterial colonies were counted after 20 h of incubation.
# K. pneumoniae 116381 = experiment: Time-kill assay; assay type: cell-based, Klebsiella pneumoniae; settings: LB media, novobiocin 32 μg/ml, compound 1 7.1 μM, 24 h
# Method: as §1
# A. baumannii ATCC 17978 = experiment: Time-kill assay; assay type: cell-based, Acinetobacter baumannii; settings: novobiocin 32 μg/ml, after 24 h
# Method: as §1
Compound,MIC of Compound 1 ([1]; PAO1 (wild-type)),MIC of Compound 1 ([1]; PAO200 (efflux-deficient)),MIC of Compound 1 ([1]; PAO750 (efflux-deficient)),outer membrane permeabilization (NPN fluorescence) (P. aeruginosa PAO1 [2]),NPN fluorescence relative to PMBN (8 μg/ml) (P. aeruginosa PAO1 [2]; compound 1 at 16 μg/ml),"MIC ([3]; ATCC17978, 18 h, Mutant C (seven serial passages, sub-MICs novobiocin + 7.1 μM compound 1))","MIC ([3]; ATCC17978, Mutant A (seven serial passages, sub-MICs novobiocin))","MIC ([3]; ATCC17978, Mutant B (seven serial passages, sub-MICs colistin))",time-kill outcome (P. aeruginosa PAO1 [4]),time-kill outcome (K. pneumoniae 116381),time-kill outcome (A. baumannii ATCC 17978)
"NC[C@H]1O[C@H](O[C@H]2[C@H](OCCCCc3cn(CCCCO[C@@H]4[C@@H](O[C@H]5O[C@H](CO)[C@@H](O)[C@H](N)[C@H]5O)[C@H](N)C[C@H](N)[C@H]4O[C@H]4O[C@H](CN)[C@@H](O)C[C@H]4N)nn3)[C@@H](O[C@H]3O[C@H](CO)[C@@H](O)[C@H](N)[C@H]3O)[C@H](N)C[C@@H]2N)[C@H](N)C[C@@H]1O.O=C(O)C(F)(F)F.O=C(O)C(F)(F)F.O=C(O)C(F)(F)F.O=C(O)C(F)(F)F.O=C(O)C(F)(F)F.O=C(O)C(F)(F)F.O=C(O)C(F)(F)F.O=C(O)C(F)(F)F.O=C(O)C(F)(F)F.O=C(O)C(F)(F)F [Compound 1, Tobramycin Homodimer 1]",>128 µg/mL,>128 µg/mL,>128 µg/mL,dose-dependent,increased fluorescence,,,,,,
CO[C@@H]1[C@@H](OC(N)=O)[C@@H](O)[C@H](Oc2ccc3c(O)c(NC(=O)c4ccc(O)c(CC=C(C)C)c4)c(=O)oc3c2C)OC1(C)C [Novobiocin],,,,,,128 µg/mL,2050 µg/mL,< 0.031 µg/mL,bacterial growth identical to their respective controls,bacterial growth identical to their respective controls,bacteriostatic
